Test results taken from ChEMBL document CHEMBL3822373, “An evolved oxazolidinone with selective potency against Mycobacterium tuberculosis and gram positive bacteria” (2016).
≈ marks a conversion by molar mass, not a printed value. Calls of active or inactive are those of the source. The calls are words filed in the database; no cut-off is given here.

How the values were obtained:
Enterococcus faecalis [1] = test: Bacteriostatic activity against Enterococcus faecalis ATCC 19433 assessed as prevention of spontaneous resistant mutant selection up to 60 times MIC90 measured after 5 weeks; format: functional
Enterococcus faecalis [2] = test: Bactericidal activity against Enterococcus faecalis ATCC 19433 up to 8 times MIC90 measured after 2 days by broth microdilution assay; format: functional
Klebsiella pneumoniae = test: Antibacterial activity against Klebsiella pneumoniae ATCC 35657 measured after 18 hrs by broth microdilution assay; format: functional; conditions: ATCC 35657, 18 h
Staphylococcus aureus [3] = test: Potentiation of faropenem-induced antibacterial activity against Staphylococcus aureus ATCC 29213 at <0.5 times MIC90 by checkboard titration assay; format: functional, organism-based
Enterococcus faecalis [4] = test: Potentiation of tabipenem-induced antibacterial activity against Enterococcus faecalis ATCC 19433 at <0.5 times MIC90 by checkboard titration assay; format: functional
Staphylococcus aureus [5] = test: Potentiation of biapenem-induced antibacterial activity against Staphylococcus aureus ATCC 29213 at <0.5 times MIC90 by checkboard titration assay; format: functional, organism-based
Pseudomonas aeruginosa = test: Antibacterial activity against Pseudomonas aeruginosa PA14 measured after 18 hrs by broth microdilution assay; format: functional; conditions: PA14, 18 h
Enterococcus faecalis [6] = test: Potentiation of faropenem-induced antibacterial activity against Enterococcus faecalis ATCC 19433 at <0.5 times MIC90 by checkboard titration assay; format: functional
[7] = tested on: Mycobacterium tuberculosis; test: Bactericidal activity against Mycobacterium tuberculosis H37Rv measured after 21 days by broth microdilution assay; format: functional; conditions: 504 h, read-out: MBC99.9
Enterococcus faecalis [8] = test: Antibacterial activity against Enterococcus faecalis ATCC 19433 measured after 18 hrs by broth microdilution assay; format: functional; conditions: ATCC 19433, 18 h
[9] = tested on: Mycobacterium tuberculosis; test: Antibacterial activity against Mycobacterium tuberculosis 115R measured after 14 days by broth microdilution assay; format: functional; conditions: 336 h
Enterococcus faecalis [10] = test: Potentiation of biapenem-induced antibacterial activity against Enterococcus faecalis ATCC 19433 at <0.5 times MIC90 by checkboard titration assay; format: functional
Acinetobacter baumannii [11] = test: Antibacterial activity against Acinetobacter baumannii ATCC 19606 measured after 18 hrs by broth microdilution assay; format: functional; conditions: ATCC 19606, 18 h
Enterobacter cloacae = test: Antibacterial activity against Enterobacter cloacae ATCC 13047 measured after 18 hrs by broth microdilution assay; format: functional; conditions: ATCC 13047, 18 h
[12] = tested on: Mycobacterium tuberculosis; test: Potentiation of isoniazid-induced antibacterial activity against Mycobacterium tuberculosis H37Rv by checkboard titration assay; format: functional, organism-based
Staphylococcus aureus [13] = test: Bactericidal activity against Staphylococcus aureus ATCC 29213 up to 8 times MIC90 measured after 2 days by broth microdilution assay; format: functional, organism-based
Staphylococcus aureus [14] = test: Antibacterial activity against […] Staphylococcus aureus ATCC 29213 measured after 18 hrs by broth microdilution assay; format: functional; conditions: ATCC 29213, 18 h
[15] = tested on: Mycobacteroides abscessus; test: Antibacterial activity against Mycobacterium abscessus ATCC 19977 measured after 3 days by broth microdilution assay; format: functional; conditions: ATCC 19977, 72 h
Acinetobacter baumannii [16] = test: Antibacterial activity against Acinetobacter baumannii ACBA measured after 18 hrs by broth microdilution assay; format: functional
Staphylococcus aureus [17] = test: Bacteriostatic activity against […] Staphylococcus aureus ATCC 29213 assessed as prevention of spontaneous resistant mutant selection up to 60 times MIC90 measured after 5 weeks; format: functional, organism-based
[18] = tested on: Mycobacterium tuberculosis; test: Potentiation of rifampicin-induced antibacterial activity against Mycobacterium tuberculosis H37Rv by checkboard titration assay; format: functional, organism-based
[19] = tested on: Mycobacterium tuberculosis; test: Antibacterial activity against […] Mycobacterium tuberculosis H37Rv measured after 14 days by broth microdilution assay; format: functional; conditions: 336 h
Staphylococcus aureus [20] = test: Potentiation of tabipenem-induced antibacterial activity against Staphylococcus aureus ATCC 29213 at <0.5 times MIC90 by checkboard titration assay; format: functional, organism-based
Mycobacterium avium = test: Antibacterial activity against Mycobacterium avium 104 measured after 7 days by broth microdilution assay; format: functional; conditions: Mycobacterium avium, 104, 168 h
[21] = tested on: Mycobacterium tuberculosis; test: Antibacterial activity against Mycobacterium tuberculosis 124R measured after 14 days by broth microdilution assay; format: functional; conditions: 336 h
Acinetobacter baumannii [22] = test: Antibacterial activity against Acinetobacter baumannii 6M-1b measured after 18 hrs by broth microdilution assay; format: functional
[23] = tested on: Mycobacterium tuberculosis; test: Antibacterial activity against Mycobacterium tuberculosis; format: functional

Row | Compound | MIC90 (Klebsiella pneumoniae) [µg/mL] | MIC90 (Pseudomonas aeruginosa) [µg/mL] | MIC90 (Enterococcus faecalis [8]) [µg/mL] | MIC90 [9] [µg/mL] | MIC90 (Acinetobacter baumannii [11]) [µg/mL] | MIC90 (Enterobacter cloacae) [µg/mL] | MIC90 (Staphylococcus aureus [14]) [µg/mL] | MIC90 (Acinetobacter baumannii [16]) [µg/mL] | MIC90 [19] [µg/mL] | MIC90 [21] [µg/mL] | MIC90 (Acinetobacter baumannii [22]) [µg/mL] | MIC90 [23] [µg/mL] | other results
1 | CC(=O)NC[C@H]1CN(c2ccc3c(c2)Oc2ccccc2O3)C(=O)O1 | > 64 | > 64 | 0.25 (≈ 0.735 µM) | 0.5 (≈ 1.47 µM) | 32 (≈ 94 µM) | > 64 | 0.5 (≈ 1.47 µM) | > 64 | 0.5 (≈ 1.47 µM) | 0.5 (≈ 1.47 µM) | 0.25 (≈ 0.735 µM) |  | Activity (Enterococcus faecalis [1]): Active; Activity (Enterococcus faecalis [2]): inactive; Activity (Staphylococcus aureus [3]): inactive; Activity (Enterococcus faecalis [4]): inactive; Activity (Staphylococcus aureus [5]): inactive; Activity (Enterococcus faecalis [6]): inactive; MBC [7]: 2 µg/mL (≈ 5.88 µM); Activity (Enterococcus faecalis [10]): inactive; Activity [12]: inactive; Activity (Staphylococcus aureus [13]): inactive; MIC90 [15]: > 64 µg/mL; Activity (Staphylococcus aureus [17]): Active; Activity [18]: inactive; Activity (Staphylococcus aureus [20]): inactive; MIC90 (Mycobacterium avium): > 64 µg/mL
2 | C[C@@H](O)[C@H]1C(=O)N2C(C(=O)[O-])=C(SC3Cn4cnc[n+]4C3)[C@H](C)[C@H]12 (stereo partly specified) [BIAPENEM] |  |  | 0.25 (≈ 0.713 µM) |  |  |  | 0.007 (≈ 0.02 µM) |  |  |  |  | 2.5 (≈ 7.13 µM) | 
3 | C[C@@H](O)[C@H]1C(=O)N2C(C(=O)O)=C([C@H]3CCCO3)S[C@H]12 [FAROPENEM] |  |  | 0.25 (≈ 0.876 µM) |  |  |  | 0.015 (≈ 0.0526 µM) |  |  |  |  | 2.5 (≈ 8.76 µM) | 
4 | CC(=O)NC[C@H]1CN(c2ccc(N3CCOCC3)c(F)c2)C(=O)O1 [LINEZOLID] | 16 (≈ 47.4 µM) | > 64 | 1 (≈ 2.96 µM) | 0.25 (≈ 0.741 µM) | > 64 | > 64 | 1 (≈ 2.96 µM) | > 64 | 0.2 (≈ 0.593 µM) | 0.25 (≈ 0.741 µM) | 0.25 (≈ 0.741 µM) |  | 
5 | C[C@@H](O)[C@H]1C(=O)N2C(C(=O)O)=C(S[C@@H]3CN[C@H](C(=O)N(C)C)C3)[C@H](C)[C@H]12 [MEROPENEM] | < 0.06 | 0.25 (≈ 0.652 µM) | 4 (≈ 10.4 µM) | 8 (≈ 20.9 µM) | > 64 | 0.13 (≈ 0.339 µM) | 0.06 (≈ 0.156 µM) | > 64 | 4 (≈ 10.4 µM) | 8 (≈ 20.9 µM) | 1 (≈ 2.61 µM) |  | MIC90 [15]: > 64 µg/mL; MIC90 (Mycobacterium avium): > 64 µg/mL
6 | CO[C@H]1/C=C/O[C@@]2(C)Oc3c(C)c(O)c4c(O)c(c(/C=N/N5CCN(C)CC5)c(O)c4c3C2=O)NC(=O)/C(C)=C\C=C\[C@H](C)[C@H](O)[C@@H](C)[C@@H](O)[C@@H](C)[C@H](OC(C)=O)[C@@H]1C [RIFAMPIN] |  |  |  | 4 (≈ 4.86 µM) |  |  |  |  |  | 128 (≈ 156 µM) |  |  | 
7 | C[C@@H](O)[C@H]1C(=O)N2C(C(=O)O)=C(SC3CN(C4=NCCS4)C3)[C@H](C)[C@H]12 [TEBIPENEM] |  |  | 0.25 (≈ 0.652 µM) |  |  |  | 0.03 (≈ 0.0782 µM) |  |  |  |  | 1.25 (≈ 3.26 µM) | 
